Data: PubChem BioAssay (NCI)
Several values for one entry are separate records, joined by “and”; a condition that tells them apart may be missing. Equal values may be shown once.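 Protocol summary: plate cells (96-well), add compound at 5 concentrations, incubate 48 h, interpolate endpoints linearly. The concentration for 50% growth inhibition is given as GI50. The concentration for full growth arrest is given as TGI.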

Tested on: MDA-MB-468 breast
Experiment: NCI tumour cell line growth inhibition, 48 h

Cn1c2ccccc2c2c3[nH][nH]c(=O)c3c3c4ccccc4[nH]c3c21
GI50: 2.28 µM | TGI: 9.19 µM

COc1cc(N2CCN(C(C)C)CC2)ccc1Nc1nc(Nc2cccc(F)c2C(=O)O)c2cc[nH]c2n1
GI50: > 25 µM | TGI: > 25 µM

Cc1ccc(C2=Nc3c(N)ncnc3NC(c3ccc4c(c3)OCO4)C2)cc1 (stereo not given)
GI50: 3.68 µM | TGI: > 100 µM

N#Cc1c(N)nc(N)nc1N[C@H](c1nc2c(F)ccc(Cl)c2c(=O)n1-c1cccnc1)C1CC1
GI50: 2.04 µM | TGI: 13.9 µM

O=C1Nc2ccccc2/C1=C\c1nc(C2CCN(S(=O)(=O)c3ccc(F)cc3)CC2)n2ccccc12
GI50: 3.92 µM | TGI: > 100 µM

c1cncc(C2Nc3cccc4cccc(c34)N2)c1
GI50: 2.93 µM | TGI: 16.7 µM

CN1CCN(c2nc(NCCCNc3ccnc4cc(Cl)ccc34)c3ccccc3n2)CC1
GI50: 2.14 µM | TGI: 6.14 µM

COc1ccc2c(c1)CCCN2S(=O)(=O)c1ccccc1[N+](=O)[O-]
GI50: 25.7 µM | TGI: 95.1 µM

COc1ccc(Cn2cc3c(c2-c2cc(OC)c(OC)c(OC)c2)CCc2c(CN4CCOCC4)noc2-3)cc1
GI50: 0.453 µM | TGI: > 100 µM

CCCCNC(=O)c1cc(NCc2cc(O)ccc2O)ccc1O
GI50: 12.3 µM | TGI: 33.9 µM

CCC(=O)Nc1ccccc1C#C/C=C\C#Cc1ccccc1C(F)(F)F
GI50: 1.98 µM | TGI: > 14 µM

COc1cc(-c2cc(/C=C/C(=O)c3ccc(Cl)c(Cl)c3)[nH]n2)cc(OC)c1OC
GI50: 1.98 µM | TGI: 7.22 µM

Cc1nc(N)sc1-c1csc(Nc2ccc(C(F)(F)F)cc2)n1
GI50: 2.25 µM | TGI: 8.77 µM

CN(C)CC(C(=O)Cc1ccccc1)c1ccccc1 (stereo not given)
GI50: 0.494 µM | TGI: 2.05 µM

CCCCc1n(Cc2ccc3ccccc3c2)cc[n+]1Cc1ccc2ccccc2c1
GI50: 0.297 µM | TGI: 1.13 µM

CCOC(=O)c1c(C)nc2c(c1N)CC(=O)N2CCc1ccccc1
GI50: 2.39 µM | TGI: 30 µM

N=C(N)c1ccc(-c2ccc(-c3cccs3)s2)s1
GI50: 0.217 µM | TGI: 0.651 µM

CCCCNC(=O)Oc1ccc(/C(=C(/C)Cc2ccc(OC)cc2)c2ccc(OCCN3CCCC3)cc2)cc1
GI50: 1.72 µM | TGI: 3.43 µM

O=C1C(=O)c2ccccc2C(O)=C1CCCc1ccc(C2CCCCCC2)cc1
GI50: 0.397 µM | TGI: 17.2 µM

Cc1cc(C(=O)NC(CCC(=O)O)C(=O)O)sc1CCC1CNc2nc(N)[nH]c(=O)c2C1 (stereo not given)
GI50: 0.0584 µM and 0.0838 µM | TGI: > 100 µM

Cc1cc2nc3cc(C)c(N)cc3[n+](-c3ccccc3)c2cc1N
GI50: 0.0798 µM | TGI: 1.12 µM

C[C@]1(Cn2ccnn2)C(C(=O)O)N2C(=O)CC2S1(=O)=O (stereo not given in full)
GI50: > 100 µM | TGI: > 100 µM

NCCOc1ccccc1/C=C1\c2ccccc2-c2ccc([N+](=O)[O-])cc21
GI50: 1.54 µM | TGI: 3.11 µM

COc1cc(C2C3=C(COC3=O)Nc3c2ccc2c3CCCC2)cc2c1OCO2 (stereo not given)
GI50: 0.0287 µM | TGI: 0.0986 µM

COCCN1CCN(Cc2ccc(-c3n[nH]c4c3C(=O)c3c(NC(=O)NN5CCOCC5)cccc3-4)cc2)CC1
GI50: 0.0198 µM | TGI: 0.0669 µM

CCc1cc2ncc(CN3CCN(c4ccc(C(=O)NC)nc4)CC3)cc2[nH]c1=O
GI50: 13.3 µM | TGI: > 100 µM

COc1cc(-c2n/c(=C\c3c(O)[nH]c4cc(Cl)ccc34)cc3c2=Nc2ccccc2-3)cc(OC)c1OC
GI50: 3.34 µM | TGI: 20.9 µM

CCN(CC)CCN(Cc1ccc(F)cc1)c1ccc(CO)c(Cl)c1
GI50: 0.43 µM | TGI: 1.75 µM

CCCCC(=O)N/N=C/c1c(O)ccc2ccccc12
GI50: 0.999 µM | TGI: 11.7 µM

Cc1[nH]c(-c2nc3ccccc3[nH]2)c(C)c1C(=O)NC(C)C1CCCCC1 (stereo not given)
GI50: 6.82 µM | TGI: 28.3 µM

O=[n+]1c2ccccc2n([O-])c2cc(Cl)ccc21
GI50: 1.24 µM | TGI: 4.96 µM

COc1ccc2c(Cl)cc(NC(=O)Nc3c(C)cccc3C)nc2c1
GI50: 84.8 µM | TGI: > 100 µM

CC(C)n1nc(-c2ccc3oc(N)nc3c2)c2c(N)ncnc21
GI50: < 0.01 µM and 0.0101 µM | TGI: 0.0649 µM and 0.0633 µM

COc1cc2ncnc(Nc3ccc4c(cnn4Cc4ccccc4)c3)c2cc1OC
GI50: 0.0596 µM | TGI: 0.584 µM

Cc1[nH]nc2c1N=C(c1ccccc1F)c1cc(C(N)=O)ccc1N2
GI50: 1.16 µM | TGI: 8 µM

Nc1nc(N)c2c(n1)NC(c1ccccc1)C1CCc3ccccc3C1=N2 (stereo not given)
GI50: 0.473 µM | TGI: 3.25 µM

C[C@]12CC[C@H]3[C@@H](C[C@@H]4SC(Nc5ccccc5)=N[C@@]45CC(O)CC[C@]35C)[C@@H]1CCC2O (stereo not given in full)
GI50: 1.72 µM | TGI: 3.38 µM

Cc1ccc(C(SCC(N)C(=O)O)(c2ccccc2)c2ccccc2)cc1 (stereo not given)
GI50: 0.0453 µM | TGI: > 49.5 µM

C#C[C@]1(O)CC[C@H]2[C@@H]3CC=C4c5sc(Nc6cc(OC)ccc6OC)nc5CC[C@]4(C)[C@H]3CC[C@@]21C
GI50: 1.53 µM | TGI: 3.96 µM

CCCNC(=O)c1ccc(Cl)cc1Cl
GI50: > 100 µM | TGI: > 100 µM

CN(c1ccc(Br)cc1)S(=O)(=O)c1ccc(-c2cnc(C3CC3)o2)cc1
GI50: 0.0414 µM

COc1ccc(/C=C2\CN(Cc3cn(CCNc4ccnc5cc(Cl)ccc45)nn3)C/C(=C\c3ccc(OC)c(OC)c3)C2=O)cc1OC
GI50: 1.51 µM | TGI: 4.41 µM

CN1CCN(Cc2ccc(NC(=O)c3cncc(C#Cc4cncc5nccnc45)c3)cc2C(F)(F)F)CC1
GI50: 7.06 µM | TGI: 15.9 µM

C[n+]1c(-c2ccc(/C=N/NC(=O)c3ccc(C(=O)N/N=C/c4ccc(-c5cn6ccccc6[n+]5C)cc4)cc3)cc2)cn2ccccc21
GI50: 114 µM | TGI: 326 µM

Cc1cc(C(=O)O)c(C)n1-c1cccc(C(=O)O)c1
GI50: > 100 µM | TGI: > 100 µM

OCCNCCCOc1ccc2ncnc(Nc3ccc(Oc4cccc(C(F)(F)F)c4)c(Cl)c3)c2c1
GI50: 0.626 µM | TGI: 2.21 µM

COC(=O)/C=C1/SC(N2N=C(c3cccs3)CC2c2ccc(F)cc2)=NC1=O (stereo not given)
GI50: 1.94 µM | TGI: 4.37 µM

Cc1cc(N2CCCC2)nc(NCc2cc(Nc3ccnc4cc(Cl)ccc34)ccc2F)n1
GI50: 1.14 µM | TGI: 2.61 µM
